The test system of one assay is UV-B exposed skin. Nature of the assay: UV-B induced skin damage in SKH-1 hairless mice. It counts as in vivo, mouse. Conditions: topical post exposure. Here is the method:
(§1) FIG. 23 illustrates the simulation of sunlight by irradiation with UVB lamps (310 nm). The irradiation was conducted in a phototoxicity testing chamber and fitted with a UV-B lamp providing with a spectral output of approximately 310 nm. The source of UVR was a short-wavelength UV lamp (VWR. Radnor, PA). The peak spectral output of this lamp was approximately 310 nm, with no energy detectable below 260 nm, approximately 0.6% between 260 and 280 nm (UV-C), 72.7% between 280 and 320 nm (UV-B), and 26.7% between 320 and 400 nm (UV-A). Radiation dosage of UV-B per irradiation was set at 54 mJ/cm^2 for the first week, 72 mJ/cm^2 for the second week, 90 mJ/cm^2 for the third week, and 108 mJ/cm^2 for the remaining weeks, as confirmed by a UV monitor. Each irradiation event was 10 minutes long.
POH-LA conjugate, linoleic acid, POH, and the additive combination of linoleic acid and POH were each suspended in glycerol:ethanol (90:10 vol/vol) to a final concentration of 10 nM with 50 μL and applied to each SKH-1 hairless mouse post UV-B exposure for treatment. The sunblock mouse was gently wiped on the exposure area with the sunblock towelette. […] In FIG. 23B, the mice were treated with the glycerol:ethanol vehicle only. In FIG. 23C, the mice were treated with POH. In FIG. 23D, the mice were treated with linoleic acid. In FIG. 23E, the mice were treated with an mixture of linoleic acid and POH. In FIG. 23F, the mice were treated with POH-LA conjugate. In FIG. 23G, the mice were treated with sunblock. The application of POH-LA conjugate to UV-B exposed tissue limits the amount of observable skin damage as compared to the untreated control (B) or the individual components of POH-LA conjugate either alone (POH—C and LA—D), in mixture (E), or with sunblock (G).
as §1, with “FIGS. 24A-D illustrates the” for “FIG. 23 illustrates the”, “UV lamp (VWR, Radnor, PA).” for “UV lamp (VWR. Radnor, PA).”, “second week, and 90 mJ/cm^2” for “second week, 90 mJ/cm^2”, “third week, as confirmed” for “third week, and 108 mJ/cm^2 for the remaining weeks, as confirmed”, “UV monitor.” for “UV monitor. Each irradiation event was 10 minutes long.”
POH-LA conjugate (FIG. 24A), linoleic acid (FIG. 24B), POH (FIG. 24C), and the additive combination of linoleic acid and POH (FIG. 24D) were each suspended in glycerol:ethanol (90:10 vol/vol) to a final concentration of 10 nM with 50 μL applied to each mouse post UV-B exposure for treatment. The application of POH-LA conjugate to UV-B exposed tissue limits the amount of observable skin damage as compared the individual components of POH-LA conjugate either alone or in mixture.
as §1, with “This example” for “FIG. 23”, “nm)” for “nm). The irradiation”, “(VWR,” for “(VWR.”, “monitor.” for “monitor. Each irradiation event was 10 minutes long.”
POH-LA conjugate, linoleic acid, POH, and the additive combination of linoleic acid and POH were each suspended in glycerol:ethanol (90:10 vol/vol) to a final concentration of 10 nM with 50 μL applied to each mouse post UV-B exposure for treatment. […]

The next assay concerns TNF-α. Nature of the assay: Serum TNF-α following UV exposure. In kind it is in vivo, mouse. The method, then: SKH-1 hairless mice were treated with 10 mg/kg POH-LA conjugate freshly prepared daily. The POH-LA conjugate was formulated in glycerol:ethanol (90:10) while the control animals received the glycerol:ethanol vehicle only or the commercially available sunblock (Well & Good Sun Protection Wipes SPF 15). Additional test groups were treated with POH formulated in the glycerol:ethanol vehicle or linoleic acid formulated in the glycerol:ethanol vehicle. 50 μL of each formulation was placed on a area 1 cm^2 area that was exposed to the UV light. The mice were treated with their respective formulations after exposure to the UV light. In FIG. 22A, the mouse was treated with sunblock. In FIG. 22B, the mouse was treated with POH. In FIG. 22C, the mouse was treated with linoleic acid. In FIG. 22D, the mouse was treated with POH-LA conjugate. In FIG. […]:ethanol vehicle only. The POH-LA conjugate, POH or linoleic acid solutions were gently spread on the skin surface and allowed to air dry. The sunblock mouse was gently wiped on the exposure area with the sunblock towelette. This exposure and treatment went on for a maximum of 10 weeks. Throughout the experimental period the animals were photographed and weighed. At the end of the experimental period the mice were photographed and euthanized, followed by skin and blood collection. Blood was analyzed for markers of inflammation and DNA recovered from the exposed area of the skin and analyzed for markers of DNA damage.
Furthermore, blood samples were taken from each mouse 4 hours after the last cutaneous treatment. About 0.5 mL of blood was collected by cardiac puncture […]. Serum was aliquoted in Eppendorf tubes and store at −80° C. as preparation for cytokine analyses. […]
Mice were treated with 10 mg/kg POH-LA conjugate freshly prepared daily. […] Blood was analyzed for markers of inflammation and DNA recovered from the exposed area of the skin and analyzed for markers of DNA damage.

Where [1] appears, read: 3 weeks of UV-B exposure and treatment.
Where [2] appears, read: 5 weeks of UV-B exposure and treatment.

On to `C=C(C)[C@@H]1CC=C(CO)CC1` [POH, perillyl alcohol], for which the observable skin damage entry in the assay on UV-B exposed skin (setting [1]) and in the assay on UV-B exposed skin (setting [2]) was “displayed damage” each time. The compound also displayed a TNF-α levels in the assay with TNF-α of 103.2 ± 18.0 pg/mL.

Turning to `C=C(C)[C@@H]1CC=C(COC(=O)CCCCCCC/C=C\C/C=C\CCCCC)CC1` [POH-LA conjugate, Octadeca-9,12-dienoic acid 4-isopropenyl-cyclohex-1-enylmethyl ester], the observable skin damage result was “displayed no damage” in the assay with UV-B exposed skin (setting [1]) and “appeared the same as the unexposed control mice skin” with UV-B exposed skin (setting [2]). The TNF-α levels with TNF-α is 72.6 ± 22.8 pg/mL.
